Data on 7 compounds can be found in patent publication US10370405B2, “C-3 novel triterpenone with C-28 amide derivatives as HIV inhibitors” (HETERO LABS LIMITED, priority 2016, dated 2019).

Like-named read-outs stand apart in the source and are kept apart here.

One data set deals with HIV-1 strain 92HT599. As to the kind of experiment: Antiviral activity: p24 estimation in MT2 cells infected with HIV-1. The format is cell-based. The note with it: for IC50: Human immunodeficiency virus 1, MT2; for inhibition at 0.01 µM / inhibition at 0.1 µM / inhibition at 1 µM: Human immunodeficiency virus 1, MT2 cells, HIV-1 92HT599, p24, ~96 hours. The protocol: MT2 cells were infected with HIV-1 strain 92HT599 (10 TCID 50/30000 cells). The infected cells were plated at the concentration of ˜30 000 cells per well in 96 well plate. Test compound was added to the micro plate in defined format with the final concentration of DMSO (vehicle) is not more than 1%. Incubation was carried out in CO2 incubator for ˜96 hours for viral infection. At the end of incubation period an aliquot from each well was taken for p24 estimation. The quantitation of p24 is an index for antiviral activity of the compound. Percent inhibition was calculated with reference to control values (vehicle controls). P-24 estimation was carried out using Advance biosciences kit as per the procedure detailed by supplier.

Data set [1] can be described thus: Single dose oral pharmacokinetic study. The format is in vivo. Particulars: mouse, plasma; Mice oral PK @30 mg/kg. The protocol:
The test item was administered through oral route to animals (rat/mice) at 30 mg/kg dose in a suitable vehicle (10% Solutol+20% PEG) at 10 ml/kg dose volume. Blood samples (˜50 μL at each time point) were collected from retro-orbital plexus using K3 EDTA as anticoagulant in eppendorf tubes at defined time intervals 30 minutes, 1 hour, 2 hour, 4 hour, 8 hour, 24 hour & 48 hour under light ether anaesthesia. The samples were centrifuged at 3500×g to separate plasma and stored at −80° C. until analysis. Plasma […] for Mice were processed as per described in sample preparation.
Standard solutions of the test compound 1 mg/mL solutions were prepared in DMSO and further dilutions were made in methanol. The calibration curve samples for LCMSMS analysis were prepared by spiking 25 μl of Mice plasma with 2.5 μl and of the appropriate working standard solution to obtain final concentrations 0.078, 0.156, 0.312, 0.625, 1.25, 2.5, 5, 10, 20 & 40 µg/ml. To the test compound plasma extraction was carried out using Acetonitrile precipitation. After reconstitution with solvent (50% Acetonitrile in Buffer) samples were analyzed by LCMSMS to get the concentrations to calculate PK Parameters.

Setting [2] is: 0% serum, read-out: Antiviral activity IC50 (nM) 0%.
Setting [3] is: read-out: Antiviral activity IC50 (nM) 40% serum.

Procedure for in vitro: On day 1 calculate the number of cells required for the assay and seed 3×10^4 cells in 200 μl per well. Weigh the compound and dissolve it in DMSO to get 10 mM stock which is further diluted to 3 mM and 1 mM. The drugs from these stocks were added to plate to get final concentration of 100 μM, 30 μM and 10 μM. […] Incubate for 4 days in 5% CO2 incubator at 37° C. On day 4, 100 μl of medium was removed from each well without disturbing the cells. Add 10 μl of MTT reagent and incubate for 4 hours at 5% CO2 incubator at 37° C. for formation of crystals. Add 200 μl of 0.1N acidic isopropanol to dissolve the crystals and read the plate at 590 nm.

For `CC(C)C1=C2[C@H]3CC[C@@H]4[C@@]5(C)CC[C@H](OC(=O)[C@H]6C[C@@H](C(=O)O)C6(C)C)C(C)(C)[C@@H]5CC[C@@]4(C)[C@]3(C)CC[C@@]2(C(=O)N2CCC[C@H]2CN2CCC(F)(F)C2)CC1=O` [Example 6, (1R,3S)-3-((((3aR,5aR,5bR,7aR,9S,11aR,11bR,13aS)-3a-((S)-2-((3,3-difluoropyrrolidin-1-yl)methyl)pyrrolidine-1-carbonyl)-1-isopropyl-5a,5b,8,8,11a-pentamethyl-2-oxo-3,3a,4,5,5a,5b,6,7,7a,8,9,10,11,11a,11b,12,13,13a-octadecahydro-2H-cyclopenta[a]chrysen-9-yl)oxy)carbonyl)-2,2-dimethylcyclobutane-1-carboxylic acid], the IC50 in the data set with HIV-1 strain 92HT599 (setting [2]) was 0.72 nM. For the same compound, the IC50 with HIV-1 strain 92HT599 (setting [3]) was 203 nM. Further, in the data set on HIV-1 strain 92HT599, the inhibition at 0.01 µM was 100%, the inhibition at 0.1 µM is 100% and the inhibition at 1 µM was 100%. In data set [1], the AUC(0-t) was 76.6 µg·h/mL and the Cmax is 11500 ng/mL. In “in vitro”, this compound showed a viability at 4 days, 10 μM of 57%; a viability at 4 days, 30 μM of 10%; a viability at 4 days, 100 μM of 6%.
Consider `CC(C)C1=C2[C@H]3CC[C@@H]4[C@@]5(C)CC[C@H](OC(=O)[C@H]6C[C@@H](C(=O)O)C6(C)C)C(C)(C)[C@@H]5CC[C@@]4(C)[C@]3(C)CC[C@@]2(C(=O)N2CCC[C@H]2CN2CCC(F)(F)CC2)CC1=O` [Example 7, (1R,3S)-3-((((3aR,5aR,5bR,7aR,9S,11aR,11bR,13aS)-3a-((S)-2-((4,4-difluoropiperidin-1-yl)methyl)pyrrolidine-1-carbonyl)-1-isopropyl-5a,5b,8,8,11a-pentamethyl-2-oxo-3,3a,4,5,5a,5b,6,7,7a,89,10,11,11a,11b,12,13,13a-octadecahydro-2H-cyclopenta[a]chrysen-9-yl)oxy)carbonyl)-2,2-dimethylcyclobutane-1-carboxylic acid], for which, in the data set on HIV-1 strain 92HT599 (setting [2]), the IC50 is 24.7 nM. Further, the IC50 in the data set on HIV-1 strain 92HT599 (setting [3]) was 313 nM. For the same compound, in the data set with HIV-1 strain 92HT599, the inhibition at 0.01 µM is 100%, the inhibition at 0.1 µM is 100% and the inhibition at 1 µM is 100%. Also, in data set [1], the area under the curve AUC(0-t) was 28.8 µg·h/mL and the highest concentration (Cmax) is 7410 ng/mL. In “in vitro”, this compound came in with a viability at 4 days, 10 μM of 65%; a viability at 4 days, 30 μM of 9%; a viability at 4 days, 100 μM of 8%.
With `CC(C)C1=C2[C@H]3CC[C@@H]4[C@@]5(C)CC[C@H](OC(=O)[C@H]6C[C@@H](C(=O)O)C6(C)C)C(C)(C)[C@@H]5CC[C@@]4(C)[C@]3(C)CC[C@@]2(C(=O)NC(C)(C)c2ncc(-c3ccccc3)[nH]2)CC1=O` [Example 8, (1R,3S)-3-((((3aR,5aR,5bR,7aR,9S,11aR,11bR,13aS)-1-isopropyl-5a,5b,8,8,11a-pentamethyl-2-oxo-3a-((2-(5-phenyl-1H-imidazol-2-yl)propan-2-yl)carbamoyl)-3,3a,4,5,5a,5b,6,7,7a,8,9,10,11,11a,11b,12,13,13a-octadecahydro-2H-cyclopenta[a]chrysen-9-yl)oxy)carbonyl)-2,2-dimethylcyclobutane-1-carboxylic acid], the IC50 in the data set with HIV-1 strain 92HT599 (setting [2]) is 3.7 nM. Moreover, the IC50 in the data set on HIV-1 strain 92HT599 (setting [3]) was 14.2 nM. Moreover, in the data set with HIV-1 strain 92HT599, the inhibition at 0.01 µM is 100%, the inhibition at 0.1 µM is 100% and the inhibition at 1 µM is 100%. In data set [1], the AUC(0-t) was found to be 265 µg·h/mL and the highest level (Cmax) was 15200 ng/mL. For the same compound, in the data set “in vitro”, the viability at 4 days, 10 μM came out at 29%; the viability at 4 days, 30 μM stood at 5%; the viability at 4 days, 100 μM is 2%.
Consider `CC(C)C1=C2[C@H]3CC[C@@H]4[C@@]5(C)CC[C@H](OC(=O)[C@H]6C[C@@H](C(=O)O)C6(C)C)C(C)(C)[C@@H]5CC[C@@]4(C)[C@]3(C)CC[C@@]2(C(=O)N2CCC[C@H]2C(C)(C)O)CC1=O` [Example 9, (1R,3S)-3-((((3aR,5aR,5bR,7aR,9S,11aR,11bR,13aS)-3a-((S)-2-(2-hydroxypropan-2-yl)pyrrolidine-1-carbonyl)-1-isopropyl-5a,5b,8,8,11a-pentamethyl-2-oxo-3,3a,4,5,5a,5b,6,7,7a,8,9,10,11,11a,11b,12,13,13a-octadecahydro-2H-cyclopenta[a]chrysen-9-yl)oxy)carbonyl)-2,2-dimethylcyclobutane-1-carboxylic acid], for which the IC50 in the data set with HIV-1 strain 92HT599 (setting [2]) is 7.44 nM. In the data set on HIV-1 strain 92HT599 (setting [3]), the IC50 was 342 nM. In the data set with HIV-1 strain 92HT599, the inhibition at 0.01 µM is 100%, the inhibition at 0.1 µM is 100% and the inhibition at 1 µM was 100%. Besides, in data set [1], the AUC(0-t) came out at 107 µg·h/mL and the Cmax amounted to 10900 ng/mL. Besides, in “in vitro”, the viability at 4 days, 10 μM was 40%; the viability at 4 days, 30 μM was determined as 9%; the viability at 4 days, 100 μM was 8%.
`CC(C)C1=C2[C@H]3CC[C@@H]4[C@@]5(C)CC[C@H](OC(=O)[C@H]6C[C@@H](C(=O)O)C6(C)C)C(C)(C)[C@@H]5CC[C@@]4(C)[C@]3(C)CC[C@@]2(C(=O)NC(C)(C)c2ncc(-c3ccc(Cl)cc3)[nH]2)CC1=O` [Example 11, (1R,3S)-3-((((3aR,5aR,5bR,7aR,9S,11aR,11bR,13aS)-3a-((2-(5-(4-chlorophenyl)-1H-imidazol-2-yl)propan-2-yl)carbamoyl)-1-isopropyl-5a,5b,8,8,11a-pentamethyl-2-oxo-3,3a,4,5,5a,5b,6,7,7a,8,9,10,11,11a,11b,12,13,13a-octadecahydro-2H-cyclopenta[a]chrysen-9-yl)oxy)carbonyl)-2,2-dimethylcyclobutane-1-carboxylic acid]: the IC50 in the data set with HIV-1 strain 92HT599 (setting [2]) is 2.93 nM. Also, the IC50 with HIV-1 strain 92HT599 (setting [3]) is 118 nM. In addition, in the data set with HIV-1 strain 92HT599, the inhibition at 0.01 µM is 92%, the inhibition at 0.1 µM is 99% and the inhibition at 1 µM is 99%. In data set [1], this compound came in with an AUC(0-t) of 143 µg·h/mL and a Cmax of 10000 ng/mL. Besides, in “in vitro”, the viability at 4 days, 10 μM was 48%; the viability at 4 days, 30 μM was determined as 3%; the viability at 4 days, 100 μM came out at 4%.
Consider `CC(C)C1=C2[C@H]3CC[C@@H]4[C@@]5(C)CC[C@H](OC(=O)[C@H]6C[C@@H](C(=O)O)C6(C)C)C(C)(C)[C@@H]5CC[C@@]4(C)[C@]3(C)CC[C@@]2(C(=O)NC(C)(C)CN2CCCC2)CC1=O` [Example 12, (1R,3S)-3-((((3aR,5aR,5bR,7aR,9S,11aR,11bR,13aS)-1-isopropyl-5a,5b,8,8,11a-pentamethyl-3a-((2-methyl-1-(pyrrolidin-1-yl)propan-2-yl)carbamoyl)-2-oxo-3,3a,4,5,5a,5b,6,7,7a,8,9,10,11,11a,11b,12,13,13a-octadecahydro-2H-cyclopenta[a]chrysen-9-yl)oxy)carbonyl)-2,2-dimethlcyclobutane-1-carboxylic acid], for which the IC50 with HIV-1 strain 92HT599 (setting [2]) is 3.71 nM. Further, in the data set with HIV-1 strain 92HT599 (setting [3]), the half-inhibitory concentration (IC50) was 164 nM. In the data set on HIV-1 strain 92HT599, the inhibition at 0.01 µM is 9%, the inhibition at 0.1 µM was 95% and the inhibition at 1 µM is 100%. Besides, in data set [1], the AUC(0-t) came to 19 µg·h/mL and the maximum concentration (Cmax) worked out at 5100 ng/mL. For the same compound, in the data set “in vitro”, the viability at 4 days, 10 μM worked out at 100%; the viability at 4 days, 30 μM amounted to 100%; the viability at 4 days, 100 μM is 96%.
With `CC(C)C1=C2[C@H]3CC[C@@H]4[C@@]5(C)CC[C@H](OC(=O)[C@H]6C[C@@H](C(=O)O)C6(C)C)C(C)(C)[C@@H]5CC[C@@]4(C)[C@]3(C)CC[C@@]2(C(=O)N2CCC[C@H]2CN2CCCC2)CC1=O` [Example 13, (1R,3S)-3-((((3aR,5aR,5bR,7aR,9S,11aR,1 bR,13aS)-1-isopropyl-5a,5b,8,8,11a-pentamethyl-2-oxo-3a-((S)-2-(pyrrolidin-1-ylmethyl)pyrrolidine-1-carbonyl)-3,3a,4,5,5a,5b,6,7,7a,8,9,10,11,11a,11b,12,13,13a-octadecahydro-2H-cyclopenta[a]chrysen-9-yl)oxy)carbonyl)-2,2-dimethylcyclobutane-1-carboxylic acid], in the data set with HIV-1 strain 92HT599 (setting [2]), the IC50 was 0.73 nM. Moreover, the IC50 in the data set on HIV-1 strain 92HT599 (setting [3]) was 17.1 nM. In the data set with HIV-1 strain 92HT599, the inhibition at 0.01 µM was 96%, the inhibition at 0.1 µM was 100% and the inhibition at 1 µM was 100%. In data set [1], the AUC(0-t) was 320 µg·h/mL and the highest level (Cmax) was 17000 ng/mL. In “in vitro”, this compound returned a viability at 4 days, 10 μM of 69%; a viability at 4 days, 30 μM of 26%; a viability at 4 days, 100 μM of 28%.

What is called IC50 is the point on the concentration scale where inhibition reaches its midpoint. Usually inhibition stands for the change of the read-out against control, counted positive when it falls. For orientation: AUC(0-t) means the area under the concentration-time curve up to a stated or last time point. In general, Cmax refers to the maximum level reached in the sampled fluid or tissue. The viability is a per cent measure of how many cells are alive, often set against a control.
